This is an account of results in patent US8106190B2, “2-aminobenzamide derivatives” (Astellas Pharma Inc., priority 2005, dated 2012).

Where a name gives a salt, the structure may show the parent alone.

The target of assay [1] is T1, human VR1 (Homo sapiens, UniProt Q8NER1).
T1 construct: A complete length cDNA coding for human VR1 was obtained; expressed in transfected cells
Put plainly: Receptor binding assay ([3H]RTX) using membrane of human VR1 stably expressing HEK 293 cell. The note with it: [3H]RTX binding, VR1/HEK 293 membrane sample, 37° C. 60 minutes; read-out: VR1 receptor binding inhibitory activity, IC50 value. The protocol: 1. Receptor Binding Assay Using VR1 Stably Expressing Cell
1) Construction of Human VR1 Stably Expressing Cell
A complete length cDNA coding for human VR1 was obtained by the following method. Firstly, a first strand cDNA was synthesized by carrying out reverse transcription of human brain mRNA using a reverse transcriptase. Next, PCR by Hot Start method was carried out using this first strand cDNA as the template and using Taq DNA polymerase. In the aforementioned PCR, an oligonucleotide consisting of the 424th to 443rd nucleotide sequence of a conventionally known human VR1 cDNA sequence (Genbank AJ277028.1) was used as the sense primer, and an oligonucleotide consisting of a complementary chain sequence of the 3082nd to 3100th nucleotide sequence as the antisense primer, and thermal denaturation was firstly carried out at 98° C. (1 minute) and then a cycle consisting of 98° C. (15 seconds)/63° C. (30 seconds)/72° C. (3 minutes) was repeated 35 times.
Cloning of the thus amplified DNA fragment was carried out using pCR-XL-TOPO vector (TOPO XL PCR Cloning Kit; Invitrogen, USA). The human VR1-cDNA alone was isolated by digesting the resulting plasmid DNA with a restriction enzyme EcoRI and then integrated into pcDNA3.1 (+) plasmid (Invitrogen, USA). In this case, the above genetic engineering operations were carried out by conventionally known methods (Sambrook, J. et al., “Molecular Cloning—A Laboratory Manual”, Cold Spring Harbor Laboratory Press, NY, 2001) and in accordance with the instructions attached to respective reagents.
Next, the resulting pcDNA3.1-VR1 was transferred into HEK 293 cell. By selecting VR1/HEK 293 cells using DMEM medium (Invitrogen, USA) containing 10% FBS, 100 μg/ml streptomycin, 100 U/ml penicillin and 400 μg/ml G 418, a receptor stably expressing cell strain was prepared. The receptor stably expressing cell was sub-cultured in the medium described in the above.
2) Preparation of Membrane Sample
The VR1/HEK 293 cell described in the above was mass-produced in a dish and then, after discarding the medium, scraped out after adding ice-cooled PBS. Centrifugation was carried out at 1000 rpm and at 4° C. for 10 minutes, and the resulting residue was homogenized by adding a homogenization buffer (25 mM Tris-HCl, 220 mM sucrose, pH 7.4) and centrifuged at 2,200 rpm and at 4° C. for 10 minutes. The resulting supernatant was centrifuged at 30,000×g and at 4° C. for 20 minutes and the resulting residue was mixed with 25 mM Tris-HCl, pH 7.4, and centrifuged at 30,000×g and at 4° C. for 20 minutes, and this operation was repeated twice. The resulting residue was suspended in 25 mM Tris-HCl, pH 7.4, and the protein concentration was determined using a protein assay staining solution (Bio-Rad, USA). The thus prepared membrane sample was stored at −80° C.
3) Receptor Binding Assay
This was carried out by modifying the method of [Neurosci., 57: 747-757 (1993)]. As the assay buffer, 25 mM Tris-HCl, 0.025% BSA, pH 7.4 was used. Each test compound, [^3H]RTX 50 μl (about 50,000 dpm; Perkin Elmer Life Science, USA) and the aforementioned membrane sample (protein quantity about 25 μg) were suspended in a microplate to a total volume of 300 μl, incubated at 37° C. for 60 minutes and then incubated on ice for 10 minutes. A 200 μg/50 μl portion of an ice-cooled α1 acid glycoprotein (AGP; Sigma) was added thereto and further incubated for 5 minutes. Completion of the incubation was carried out by rapid filtration of the reaction liquid using a GF/B filter (Perkin Elmer Life Science, USA). After 7 times of washing with ice-cooled 25 mM Tris-HCl buffer (pH 7.4), radioactivity of the filter was measured by a liquid scintillation counter. Regarding the specific binding, a part substituted by 1 μM of RTX among the total binding of [^3H]RTX with the VR1 receptor stably expressing cell membrane fraction was regarded as the specific binding originated from the VR1 receptor. Evaluation of test compounds was carried out in the following manner. […]

The test system of assay [2] is mouse (ddY, male). The assay can be described thus: Capsaicin test (capsaicin-induced paw-licking behavior). Type of assay: in vivo. The note with it: oral administration 45 minutes before 1.6 μg capsaicin to planta; 5 minutes observation; vehicle group = 100%. The procedure: Inhibitory action on pain behavior of the compounds as the active ingredients of the pharmaceutical preparations of the present invention was evaluated in accordance with the method described in a reference [Neuropharmacol., 31: 1279-1285 (1992)]. That is, when 1.6 μg of capsaicin is administered to a planta of a mouse (ddY, male, 4 to 5 weeks of age), it induces paw-licking behavior. The pain behavior suppressing action was evaluated by measuring the paw-licking behavior expressing time during 5 minutes after the administration. Each test compound was orally administered 45 minutes before the administration of capsaicin. Evaluation of the test compounds was carried out by calculating each inhibition rate of the test compound administration group when the paw-licking behavior expressing time of the vehicle administration group was regarded as 100%.

For assay [3], the system named is rat (SD, male). Put plainly: Spinal nerve ligation model test (von Frey hair test). Type of assay: in vivo. The note with it: L5/L6 spinal nerve ligated rat, oral administration 60 minutes before evaluation. The procedure:
4. Spinal Nerve Ligation Model Test
Inhibitory action on pain behavior of the compounds as the active ingredients of the pharmaceutical preparations of the present invention was evaluated in accordance with the method described in a reference [Pain, 50: 355-363 (1992)]. Under pentobarbital anesthesia, the lumbar skin and muscle of a rat (SD, male, 5 to 6 weeks of age) were incised and the lumber nerve was exposed by removing the transverse process of lumbar vertebra L 6. The L 5 and L 6 spinal nerves were ligated with a silk thread and then the wound was sutured. The treatment was applied to the left side.
The drug effect evaluation was carried out after 7 to 15 days of the operation. Pain threshold for mechanical stimulus was examined by the von Frey hair (VFH) test.
Individuals having lowered pain threshold were selected in advance by the VFH test on the day before the drug effect evaluation and divided into groups in such a manner that difference in the average threshold value between respective groups becomes small.
The test compounds were orally administered 60 minutes before the drug effect evaluation. […]

The target of assay [4] is T1, human VR1. Put plainly: Inhibitory activity on capsaicin-induced electric current, whole cell patch clamp, VR1 receptor-expressed HEK 293 cells. Type of assay: cell-based. The note with it: capsaicin 1 μM, voltage-clamped, read-out: IC50 value, inhibition of capsaicin-induced current response. The procedure: 2. Measurement of Inhibitory Activity on Capsaicin-Induced Electric Current Using VR1 Stably Expressing Cell
The VR1 receptor-expressed HEK 293 cells prepared in the aforementioned Test Example 1 were inoculated onto a poly-D-lysine-coated cover glass to a density of from 1 to 1.5×10^4 cells/cm^2. This was allowed to stand still in a CO2 incubator (37° C., 5% CO2) and used in this test after a lapse of from 3 to 15 hours.
By recording whole cell patch clamp for the VR1 receptor-expressed HEK 293 cells under a voltage-clamped condition, the current response induced by topically applying capsaicin (1 μM) to the vicinity of the cells was measured. Test compounds were dissolved in an extracellular liquid and applied to a chamber by multi-barrel. Composition (mM) of the extracellular solution was set to NaCl 145, CsCl 5, CaCl2 1, MgCl2 1, HEPES 10 and glucose 10 [pH=7.3]. Composition (mM) of the intracellular solution was set to CsCl 120, MgCl2 2, HEPES 10, BAPTA 10, Na2 GTP 0.2, Mg ATP 4 and phosphorcreatine Na2 4 [pH=7.2]. By defining the current response of capsaicin in the absence of test compound as 100% and continuously applying each test compound starting from a lower concentration, inhibition rate at each concentration was measured. The IC50 value was calculated by nonlinear recursion from respective inhibition rate.
(Patch clamp records ionic current or voltage across a cell membrane.)

T1 sequence (Q8NER1 whole entry): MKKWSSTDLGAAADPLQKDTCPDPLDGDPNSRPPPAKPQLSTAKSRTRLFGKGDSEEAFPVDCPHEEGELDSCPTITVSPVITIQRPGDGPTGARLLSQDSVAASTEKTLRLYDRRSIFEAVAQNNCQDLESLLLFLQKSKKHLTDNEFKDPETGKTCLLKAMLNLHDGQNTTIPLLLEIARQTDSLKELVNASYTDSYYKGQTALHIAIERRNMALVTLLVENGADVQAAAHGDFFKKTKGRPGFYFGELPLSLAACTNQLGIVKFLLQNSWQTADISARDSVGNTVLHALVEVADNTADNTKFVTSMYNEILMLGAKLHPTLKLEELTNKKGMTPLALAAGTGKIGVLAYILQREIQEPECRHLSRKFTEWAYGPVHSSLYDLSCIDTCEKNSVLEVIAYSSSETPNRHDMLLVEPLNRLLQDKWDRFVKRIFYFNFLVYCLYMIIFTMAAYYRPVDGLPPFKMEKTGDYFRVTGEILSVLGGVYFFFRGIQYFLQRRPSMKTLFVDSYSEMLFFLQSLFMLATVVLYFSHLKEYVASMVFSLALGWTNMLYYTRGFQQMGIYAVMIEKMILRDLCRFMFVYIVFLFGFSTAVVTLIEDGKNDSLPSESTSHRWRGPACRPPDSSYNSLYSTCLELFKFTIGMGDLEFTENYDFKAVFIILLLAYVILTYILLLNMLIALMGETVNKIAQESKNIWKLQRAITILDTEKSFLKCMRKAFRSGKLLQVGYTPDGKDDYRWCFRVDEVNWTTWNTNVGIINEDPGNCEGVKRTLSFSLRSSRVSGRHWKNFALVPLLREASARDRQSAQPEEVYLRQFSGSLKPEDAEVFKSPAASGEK

Usually IC50 stands for the concentration that inhibits the measured activity by half. As for `O=C(Nc1ccc2c(c1)N(CCO)C(=O)CC2)c1ccc(C(F)(F)F)cc1NC1CCCCC1` [Example 105, 2-(cyclohexylamino)-N-[1-(2-hydroxyethyl)-2-oxo-1,2,3,4-tetrahydroquinolin-7-yl]-4-(trifluoromethyl)benzamide], in assay [1], the half-maximal inhibitory concentration (IC50) is 4.2 nM. Take `CCCCCN1CC[C@H](Nc2cc(C(F)(F)F)ccc2C(=O)Nc2ccc3c(c2)NC(=O)C3(C)C)C1` [Example 334]: the “inhibition rate of paw-licking behavior expressing time” value (shortened to “inhibition rate”) in assay [2] stood at 58%. The IC50 in assay [1] is 23 nM. Turning to `CN1C(=O)CCc2ccc(NC(=O)c3cc(Cl)cnc3NCC3CC3)cc21` [Example 400], the half-inhibitory concentration (IC50) in assay [1] is 60 nM. On to `CN1C(=O)CCc2ccc(NC(=O)c3ccc(C(F)(F)F)cc3N[C@@H]3CCCC[C@H]3OCc3ccccc3)cc21` [Example 176], for which the IC50 in assay [1] came out at 8.9 nM. For `Cc1nc2cc(NC(=O)c3ccc(C(F)(F)F)cc3NCc3ccncc3)ccc2s1` [Example 321], the “inhibition rate” value in assay [2] came out at 67%. Moreover, the IC50 in assay [1] amounted to 25 nM. Take `Cl.O=C1Cc2c(cc(NC(=O)c3ccc(C(F)(F)F)cc3N[C@H]3CCCC[C@@H]3N3CCCC3)cc2C(F)(F)F)N1` [Example 107, N-[2-oxo-4-(trifluoromethyl)-2,3-dihydro-1H-indol-6-yl]-2-{[(1S,2S)-2-pyrrolidin-1-ylcyclohexyl]amino}-4-(trifluoromethyl)benzamide hydrochloride]: the “inhibition rate” value in assay [2] was 53%. Further, the “pain threshold for mechanical stimulus of the operation side leg (VFH test)” value in assay [3] is recorded as “completely restored the threshold value of the operation side leg to the threshold value range of the non-operation side leg”. Further, the half-inhibitory concentration (IC50) in assay [4] was found to be 8.8 nM; in assay [1], 13 nM. Consider `CC1Oc2ccc(NC(=O)c3ccc(C(F)(F)F)cc3NC3CCCCC3)cc2NC1=O` (stereo not drawn) [Example 73], for which, in assay [2], the “inhibition rate” value turned out to be 95%.

On to `Cc1nc2cc(NC(=O)c3ccc(C(F)(F)F)cc3N[C@H]3CCCC[C@@H]3N(C)C)ccc2s1` [Example 108, 2-{[(1S,2S)-2-(dimethylamino)cyclohexyl]amino}-N-(2-methyl-1,3-benzothiazol-5-yl)-4-(trifluoromethyl)benzamide hydrochloride], for which the concentration for half-maximal inhibition (IC50) in assay [1] was determined as 19 nM. The same measure, in the same setting: the figure for `O=C(Nc1ccc2cccnc2c1)c1ccc(C(F)(F)F)cc1N[C@H]1CCCC[C@@H]1N1CCCC1` [Example 386] is 18 nM; for `CN1C(=O)CCc2ccc(NC(=O)c3ccc(Cl)cc3NN3CCCCC3)cc21` [Example 119] it is 45 nM; for `C[C@H]1Oc2ccc(NC(=O)c3ccc(Cl)cc3N[C@@H]3CCCC[C@@H]3N3CCCC3)cc2NC1=O` [Example 106, 4-chloro-N-[(2R)-2-methyl-3-oxo-3,4-dihydro-2H-benzoxazin-6-yl]-2-{[(1R,2S)-2-pyrrolidin-1-ylcyclohexyl]amino}benzamide hydrochloride] it is 52 nM.

On to `CN1C(=O)CCc2ccc(NC(=O)c3ccc(Cl)cc3NC3CCCC3)cc21.Cl` [Example 1, 4-chloro-2-(cyclopentylamino)-N-(1-methyl-2-oxo-1,2,3,4-tetrahydroquinolin-7-yl)benzamide hydrochloride], for which, in assay [2], the “inhibition rate” value turned out to be 45%. The IC50 in assay [1] is 12 nM. For `CN1C(=O)CCc2ccc(NC(=O)c3ccc(C(F)(F)F)cc3NC3(CN4CCCC4)CCCCC3)cc21` [Example 173], the concentration for half-maximal inhibition (IC50) in assay [1] was 5.6 nM. `CCC(CC)Nc1cc(Cl)ccc1C(=O)Nc1ccc2c(c1)N(C)C(=O)CC2` [Example 17]: the “inhibition rate” value in assay [2] came out at 54%. The concentration for half-maximal inhibition (IC50) in assay [1] came to 5.8 nM.

For the molecule `CC1(C)C(=O)Nc2cc(NC(=O)c3ccc(C(F)(F)F)cc3N[C@H]3CCCC[C@@H]3N3CCCC3)ccc21` [Example 248], the IC50 in assay [1] came to 31 nM.

Turning to `CN1C(=O)CCc2ccc(NC(=O)c3ccc(Cl)cc3N[C@H]3CCCC[C@@H]3N3CCCC3)cc21` [Example 54], the “inhibition rate” value in assay [2] is 34%. For `CN1C(=O)CCc2ccc(NC(=O)c3ccc(C(F)(F)F)cc3Nc3cccnc3)cc21` [Example 178], the IC50 in assay [1] turned out to be 62 nM. On the same count and under the same terms, the same measure for `COCCNc1cc(C(F)(F)F)ccc1C(=O)Nc1ccc2sc(C)nc2c1` [Example 307]: 9.8 nM.

On to `CCCCN1CCC(Nc2cc(C(F)(F)F)ccc2C(=O)Nc2ccc3c(c2)NC(=O)C3(C)C)CC1` [Example 335], for which the “inhibition rate” value in assay [2] is listed as 49%. In assay [1], the 50% inhibitory concentration (IC50) came to 87 nM.

As to `CC(C)CN1CCC(Nc2cc(C(F)(F)F)ccc2C(=O)Nc2ccc3c(c2)NC(=O)C3(C)C)CC1` [Example 327], in assay [1], the IC50 amounted to 3.7 nM. Still for that read-out and setting: the same measure for `O=C(Nc1ccc2cccnc2c1)c1ccc(C(F)(F)F)cc1N[C@H]1CCCC[C@H]1N1CCCC1` [Example 367]: 15 nM.

As for `CN1C(=O)CCc2ccc(NC(=O)c3ccc(C(F)(F)F)cc3N[C@H]3CCCC[C@@H]3N3CCC(C)(C)C3)cc21` [Example 170], the half-inhibitory concentration (IC50) in assay [1] was determined as 2.6 nM.
